Test: recombinant barcode read abundance after kanamycin selection (control-corrected) (log10(CPM+1)); higher = more efficient recombination; sequences stand for … in AGTGCAGAGAAAATCGGCCAGTTTTCTCTGCCTGCAGTCCGCATGCCGT…AGATTTATGCAGCGGACTGCCTTTCTCCCAAAGTGATAAACCGGACAGTATCATGGACCGGTTTTCCCGGTAATCCGTATTTGCAAGGTTGGTTTCACT; site = the 11-nt target
Summary of the method: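 Targets were screened in pooled form in E. coli against IS621 bridge RNA target-binding loops. Recombination efficiency is based on barcode counts at recombinant junctions in counts per million, averaged and corrected for the control. Numbers are shown as log10(CPM+1), with duplicate plates on chloramphenicol/ampicillin LB agar (control) or chloramphenicol/ampicillin/kanamycin with 0.1 mM IPTG.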
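Also: IS621 recombinase and bridge RNA in Escherichia coli cells.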

Row | Sequence | recombinant barcode read abundance (log10)
1 | CGGGCAGCTTGGGTTCTAACCTGTTGCCT (site CGTGCAGCTAG) | 0.156
2 | CGGGCCACTTGGGTTCTAACCTGTTGCGT (site CGGCCCACTCC) | 0.175
3 | CGGGCCACTTGGGTTCTAACCTGTTGCGT (site CGGGCCACTAC) | 2.99
4 | CGGGCGTCTTGGGTTCTAACCTGTTGCTT (site CGGACGTCTCA) | 0.148
5 | CGGGCGTCTTGGGTTCTAACCTGTTGCTT (site CGGGCGTCTAA) | 1.46
6 | CGGTCCTCTTGGGTTCTAACCTGTTGCGC (site CGGGCCTCTGT) | 0.0542
7 | CGGTCCTCTTGGGTTCTAACCTGTTGCGC (site CGGTCCTCTGC) | 2.63
8 | CGGTCTACTTGGGTTCTAACCTGTTGCCT (site CAGTCTACTAG) | 0.0894
9 | CGGTCTACTTGGGTTCTAACCTGTTGCCT (site CCGTCTACTAG) | 0.264
10 | CGGTCTACTTGGGTTCTAACCTGTTGCCT (site CGGTCTACTAG) | 0.219
11 | CGGTCTACTTGGGTTCTAACCTGTTGCCT (site CTGTCTACTAG) | 0.0592
12 | CGGTCTGCTTGGGTTCTAACCTGTTGCAT (site CGGTCTGCTAT) | 0.826
13 | CGGTCTGCTTGGGTTCTAACCTGTTGCAT (site GCTAGGACTCA) | 0.217
14 | CGGTGTCCTTGGGTTCTAACCTGTTGCTT (site AGGTGTCCTAA) | 0.0515
15 | CGGTGTCCTTGGGTTCTAACCTGTTGCTT (site CGGTGTCCTAA) | 1.21
16 | CGGTTGCCTTGGGTTCTAACCTGTTGCGT (site CGGTCGCCTAT) | 0.318
17 | CGGTTGCCTTGGGTTCTAACCTGTTGCGT (site CGGTTGCCTAC) | 2.48
18 | CGTAATGCTTGGGTTCTAACCTGTTGCCT (site CGAAATGCTAG) | 0.178
19 | CGTAATGCTTGGGTTCTAACCTGTTGCCT (site CGCAATGCTAG) | 0.234
20 | CGTAATGCTTGGGTTCTAACCTGTTGCCT (site CGGAATGCTAG) | 0.0453

Row | Sequence | recombinant barcode read abundance (log10)
21 | CGTAATGCTTGGGTTCTAACCTGTTGCCT (site CGTAATGCTAG) | 0.0999
22 | CGTAGACCTTGGGTTCTAACCTGTTGCTA (site CGTAGACCTTA) | 0.216
23 | CGTAGACCTTGGGTTCTAACCTGTTGCTA (site TTATCCGCTAG) | 0.0216
24 | CGTAGGACTTGGGTTCTAACCTGTTGCCT (site AGTAGGACTAG) | 0.0846
25 | CGTAGGACTTGGGTTCTAACCTGTTGCCT (site CGTAGGACTAG) | 0.209
26 | CGTAGGACTTGGGTTCTAACCTGTTGCCT (site GGTAGGACTAG) | 0.0902
27 | CGTAGGACTTGGGTTCTAACCTGTTGCCT (site TGTAGGACTAG) | 0.0115
28 | CGTATGTCTTGGGTTCTAACCTGTTGCCT (site AGTATGTCTAG) | 0.0814
29 | CGTATGTCTTGGGTTCTAACCTGTTGCCT (site CGTATGTCTAG) | 0.684
30 | CGTATGTCTTGGGTTCTAACCTGTTGCCT (site GGTATGTCTAG) | 0.0736
31 | CGTATGTCTTGGGTTCTAACCTGTTGCCT (site TGTATGTCTAG) | 0.189
32 | CGTCAACCTTGGGTTCTAACCTGTTGCGT (site CGTAAACCTAC) | 0.186
33 | CGTCAACCTTGGGTTCTAACCTGTTGCGT (site CGTCAACCTAC) | 0.205
34 | CGTCAACCTTGGGTTCTAACCTGTTGCGT (site CGTGAACCTAC) | 0.0619
35 | CGTCAACCTTGGGTTCTAACCTGTTGCGT (site CGTTAACCTAC) | 0.242
36 | CGTCATCCTTGGGTTCTAACCTGTTGCCT (site CGTCAACCTAG) | 0.0954
37 | CGTCATCCTTGGGTTCTAACCTGTTGCCT (site CGTCACCCTAG) | 0.0927
38 | CGTCATCCTTGGGTTCTAACCTGTTGCCT (site CGTCAGCCTAG) | 0.112
39 | CGTCATCCTTGGGTTCTAACCTGTTGCCT (site CGTCATCCTAG) | 0.0294
40 | CGTCCACCTTGGGTTCTAACCTGTTGCCT (site AGTCCACCTAG) | 0.198

Row | Sequence | recombinant barcode read abundance (log10)
41 | CGTCCACCTTGGGTTCTAACCTGTTGCCT (site CGTCCACCTAG) | 0.0544
42 | CGTCCACCTTGGGTTCTAACCTGTTGCCT (site GGTCCACCTAG) | 0.1
43 | CGTCCACCTTGGGTTCTAACCTGTTGCCT (site TGTCCACCTAG) | 0.245
44 | CGTCCTGCTTGGGTTCTAACCTGTTGCCT (site AGTCCTGCTAG) | 0
45 | CGTCCTGCTTGGGTTCTAACCTGTTGCCT (site CGTCCTGCTAG) | 0.488
46 | CGTCCTGCTTGGGTTCTAACCTGTTGCCT (site GGTCCTGCTAG) | 0
47 | CGTCCTGCTTGGGTTCTAACCTGTTGCCT (site TGTCCTGCTAG) | 0.0535
48 | CGTCCTTCTTGGGTTCTAACCTGTTGCCT (site AGTCCTTCTAT) | 0.351
49 | CGTCCTTCTTGGGTTCTAACCTGTTGCCT (site CGTCCTTCTAG) | 0.0421
50 | CGTCGACCTTGGGTTCTAACCTGTTGCCT (site AGTCGACCTAG) | 0.092
51 | CGTCGACCTTGGGTTCTAACCTGTTGCCT (site CGTCGACCTAG) | 0.0617
52 | CGTCGACCTTGGGTTCTAACCTGTTGCCT (site GGTCGACCTAG) | 0.227
53 | CGTCGACCTTGGGTTCTAACCTGTTGCCT (site TGTCGACCTAG) | 0.194
54 | CGTCTGACTTGGGTTCTAACCTGTTGCCA (site CGACTGACTAG) | 0.158
55 | CGTCTGACTTGGGTTCTAACCTGTTGCCA (site CGTCTGACTTG) | 0.241
56 | CGTGAAGCTTGGGTTCTAACCTGTTGCCT (site CGTATAGCTAG) | 0.183
57 | CGTGAAGCTTGGGTTCTAACCTGTTGCCT (site CGTGAAGCTAG) | 0.795
58 | CGTGCGACTTGGGTTCTAACCTGTTGCAT (site CGTACGACTAT) | 0.0517
59 | CGTGCGACTTGGGTTCTAACCTGTTGCAT (site CGTCCGACTAT) | 0.0641
